Test results from patent publication US20260273074A1, “FERRITIN-TARGETING PROTACS AND METHODS OF INDUCING PYROPTOSIS” (Wisconsin Alumni Research Foundation, priority 2023, published 2026).

Test system: cleaved caspase 3
Experiment: Western blot of cleaved caspase 3 in B16F10 cells
Assay type: cell-based, murine
Details: 8 h
Procedure: As for the determination of cleaved-GSDME and cleaved-caspase-3, B16F10 cells were seeded in 6-well culture plates (2×10^5 cells per well) and cultured for 24 h. Then the medium in the corresponding wells except the negative control was replaced with 1 mL of medium containing ferritin degraders, albumin nanoparticles, or the degrader with inhibitors at the indicated concentrations. Incubation for another 6 or 8 h was used to test the cleaved-caspase-3, while treatment for another 16 or 20 h was used to test cleaved-GSDME. The following procedures were the same as mentioned above.

With `CCCCCCCCC=CCCCCCCCC(=O)NCCCC(=O)NC(C(=O)N1CC(O)CC1C(=O)NCc1ccc(-c2scnc2C)cc1)C(C)(C)C` (stereo not shown) [DeFer-2] the “level of cleaved caspase 3” value was “increased the level of cleaved caspase 3 in a dose-dependent manner”.
